Assay [1] relates to cholinergically deficient memory. Nature of the assay: Dark Avoidance Assay (block of scopolamine-induced memory impairment). As to conditions: Mus musculus, read-out: % of Animals Greater than Scopolamine; for responders at 5 mg/kg: dose 5.0 mg/kg of body weight; for responders at 1.25 mg/kg: dose 1.25 mg/kg of body weight; for responders at 2.5 mg/kg: dose 2.5 mg/kg of body weight; for responders at 0.16 mg/kg: dose 0.16 mg/kg of body weight. The class given is in vivo, mice. As for the experimental part:
In this assay mice are tested for their ability to remember an unpleasant stimulus for a period of 24 hours. A mouse is placed in a chamber that contains a dark compartment; a strong incandescent light drives it to the dark compartment, where an electric shock is administered through metal plates on the floor. The animal is removed from the testing apparatus and tested again, 24 hours later, for the ability to remember the electric shock.
If scolopamine, an anticholinergic that is known to cause memory impairment, is administered before an animal's initial exposure to the test chamber, the animal re-enters the dark compartment shortly after being placed in the test chamber 24 hours later.

For assay [2], the target named is acetylcholinesterase (Homo sapiens, UniProt P22303). The assay can be described thus: Cholinesterase Inhibition Assay (photometric method of Ellman et al.). It is filed as biochemical.
Chain of acetylcholinesterase (P22303 32-614): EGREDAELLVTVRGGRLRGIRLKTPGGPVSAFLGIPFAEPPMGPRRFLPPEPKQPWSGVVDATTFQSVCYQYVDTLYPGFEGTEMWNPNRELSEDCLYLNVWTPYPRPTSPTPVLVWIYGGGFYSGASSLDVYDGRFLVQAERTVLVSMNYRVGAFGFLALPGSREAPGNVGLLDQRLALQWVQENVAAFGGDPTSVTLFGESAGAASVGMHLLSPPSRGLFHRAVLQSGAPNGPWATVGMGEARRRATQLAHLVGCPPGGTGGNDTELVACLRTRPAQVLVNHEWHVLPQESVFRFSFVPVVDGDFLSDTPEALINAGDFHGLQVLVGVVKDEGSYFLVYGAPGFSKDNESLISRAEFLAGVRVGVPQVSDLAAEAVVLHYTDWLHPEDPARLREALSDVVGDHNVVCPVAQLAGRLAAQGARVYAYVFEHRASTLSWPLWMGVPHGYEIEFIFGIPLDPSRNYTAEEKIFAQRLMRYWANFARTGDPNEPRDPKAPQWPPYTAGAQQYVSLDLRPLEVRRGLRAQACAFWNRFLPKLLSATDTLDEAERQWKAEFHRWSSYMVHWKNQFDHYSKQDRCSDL
[3] abbreviates: mice, dose 0.63 mg/kg of body weight, retest after 24 hours.
[4] abbreviates: photometric method of Ellman, read-out: Cholinesterase Inhibition IC50.

Structures are written as SMILES. Counter-ions that a name gives are not always drawn. Like-named read-outs stand apart in the source and are kept apart here.

Take `CC[C@@H]1C(=O)OC[C@@H]1Cc1cncn1C` [Pilocarpine, reference compound]: in assay [1] (mice, retest after 24 hours), the responders at 5 mg/kg came out at 13%.

With `Nc1c2c(nc3cc(C(F)(F)F)ccc13)CCCC2O` (stereo not shown) [9-Amino-1,2,3,4-tetrahydro-6-trifluoromethylacridin-1-ol], in assay [1] (setting [3]), the responders at 0.63 mg/kg was determined as 71%.

For `OC1CCCc2nc3ccccc3c(NCc3ccccc3)c21` (stereo not shown) [9-Benzylamino-1,2,3,4-tetrahydroacridin-1-ol], in assay [1] (mice, retest after 24 hours), the responders at 1.25 mg/kg is 27%.

As a reminder, the IC50 is the concentration needed to halve the response being measured. Consider `O=C1CCCc2nc3ccccc3c(NCCCC(c3cccc(F)c3)c3cccc(F)c3)c21` [3,4-Dihydro-9-[4,4-bis(3-fluorophenyl)butylamino]acridin-1(2H)-one], for which the IC50 in assay [2] was 1.9 µM. Besides, the responders at 5 mg/kg in assay [1] (mice, retest after 24 hours) is 40%.

The compound `OC1CCCc2nc3ccccc3c(NCc3ccc(F)cc3)c21` (stereo not shown) [9-(4-fluorobenzylamino)-1,2,3,4-tetrahydroacridin-1-ol] had an IC50 in assay [2] of 110 µM. Besides, the responders at 1.25 mg/kg in assay [1] (mice, retest after 24 hours) was 33%.

`OC1CCCc2nc3ccccc3c(NCc3ccccc3F)c21` (stereo not shown) [9-(2-Fluorobenzylamino)-1,2,3,4-tetrahydroacridin-1-ol maleate] came in with an IC50 in assay [2] of 210 µM. Moreover, the responders at 2.5 mg/kg in assay [1] (mice, retest after 24 hours) stood at 27%.

For the compound `O=C1CCCc2nc3cc(F)ccc3c(NCc3ccccc3)c21` [9-Benzylamino-3,4-dihydro-6-fluoroacridin-1(2H)-one, maleate], the responders at 5 mg/kg in assay [1] (mice, retest after 24 hours) was determined as 40%.

On to `OC1CCCc2nc3ccccc3c(NCc3ccccc3Cl)c21` (stereo not shown) [9-(2-Chlorobenzylamino)-1,2,3,4-tetrahydroacridin-1-ol], for which half-maximal inhibition in assay [2] (IC50) required 130 µM. The responders at 0.31 mg/kg in assay [1] (mice, dose 0.31 mg/kg of body weight, retest after 24 hours) turned out to be 27%.

Consider `O=C1CCCc2nc3ccccc3c(NCCCC(c3ccccc3)c3ccccc3)c21` [3,4-Dihydro-9-(4,4-diphenylbutylamino)acridin-1(2H)-one], for which the IC50 in assay [2] was 13 µM. For the same compound, the responders at 0.63 mg/kg in assay [1] (setting [3]) was 50%.

As for `OC1CCCc2nc3ccccc3c(NCCc3ccccc3)c21` (stereo not shown) [9-Phenethylamino-1,2,3,4-tetrahydroacridin-1-ol], in assay [2] (setting [4]), the IC50 worked out at 240 µM.

On to `OC1CCCc2nc3ccccc3c(NCc3ccccc3C(F)(F)F)c21` (stereo not shown) [1,2,3,4-Tetrahydro-9-(2-trifluoromethylbenzylamino)acridin-1-ol], for which the IC50 in assay [2] came out at 920 µM. Moreover, the responders at 0.16 mg/kg in assay [1] (mice, retest after 24 hours) was 38%.

Take `COc1ccccc1CNc1c2c(nc3ccccc13)CCCC2O` (stereo not shown) [9-(2-Methoxybenzylamino)-1,2,3,4-tetrahydroacridin-1-ol]: the IC50 in assay [2] is 150 µM. In assay [1] (mice, dose 0.21 mg/kg of body weight, retest after 24 hours), the responders at 0.21 mg/kg was determined as 33%.

`Nc1c2c(nc3ccccc13)CCCC2=O` [9-Amino-3,4-dihydroacridin-1(2H)--one, 9-Amino-3,4-dihydroacridin-1(2H)-one]: in assay [2] (setting [4]), the IC50 amounted to 250 µM.

For the compound `Nc1c2c(nc3ccccc13)CCCC2O` (stereo not shown) [9-Amino-1,2,3,4-tetrahydroacridin-1-ol], in assay [1] (setting [3]), the responders at 0.63 mg/kg stood at 33%.

`Nc1c2c(nc3ccccc13)CCC=C2` [9-Amino-3,4-dihydroacridine]: in assay [2], the IC50 came to 6.5 µM. Besides, in assay [1] (mice, retest after 24 hours), the responders at 2.5 mg/kg came to 20%.

In assay [2], `OC1CCCc2nc3ccccc3c(NCc3ccc(C(F)(F)F)cc3)c21` (stereo not shown) [1,2,3,4-Tetrahydro-9-(4-trifluoromethylbenzylamino)acridin-1-ol] came in with an IC50 of 550 µM. Moreover, the responders at 0.16 mg/kg in assay [1] (mice, retest after 24 hours) was 22%.

`OC1CCCc2nc3ccccc3c(NCc3c(F)c(F)c(F)c(F)c3F)c21` (stereo not shown) [9-[(2,3,4,5,6-Pentafluorobenzyl)amino]-1,2,3,4-tetrahydroacridin-1-ol, fumarate] came in with an IC50 in assay [2] of 350 µM. Moreover, the responders at 5 mg/kg in assay [1] (mice, retest after 24 hours) was determined as 20%.

With `Nc1c2c(nc3ccccc13)CCCC2` [Tacrine, 9-Amino-1,2,3,4-tetrahydroacridine, reference compound], the responders at 0.63 mg/kg in assay [1] (24 h) is 13%.
